One molecule from patent US20150080380A1, “Therapeutic Uses” (GLAXOSMITHKLINE INTELLECTUAL PROPERTY DEVELOPMENT LIMITED, priority 2012, published 2015) can be followed below.

The structures appear in SMILES notation.

The subject of this assay is remyelination in cuprizone/rapamycin-induced demyelination. The experiment in a line: Mouse cuprizone/rapamycin-induced demyelination model (Black-gold II staining). It counts as in vivo, C57BL/6 mice. As to conditions: 30 mg/kg orally b.i.d. 9 days, n=7, P<0.05. On the procedure: The ability of Example compound 2 to enhance in vivo remyelination was determined with the mouse cuprizone/rapamycin-induced demyelination model.
The cuprizone plus rapamycin model was conducted with the protocol as follows: rapamycin was dissolved in 100% ethanol and stored at −20° C. until use. Immediately before injection, the rapamycin was diluted in vehicle solution to get a final concentration in 5% PEG-400, 5% Tween 80, and 4% ethanol. The C57BL/6 mice at age of 8 weeks were fed with powder mouse food mixed freshly with 0.2% cuprizone (w/w) and received daily intraperitoneal injection of rapamycin (10 mg/kg body weight) for 5 weeks to induce demyelination, then animals were allowed to recover (removal of cuprizone from the diet and rapamycin injection) and administrated with Example compound 2, at 30 mg/kg body weight orally, b.i.d. for an additional 9 days prior to sacrifice. The brain samples were collected for pathologic analysis. […]
Mice were deeply anesthetized and quickly perfused with 0.9% saline via the left cardiac ventricle to drain out blood. […] The sections were monitored to determine the extent of staining. […]
Image-Pro 6.3 software (Media Cybernetics, USA) was used for subsequent quantitative evaluation. […] For measurement of mean density, areas and IOD in central corpus callosum or cortex were calculated after all digital images were set under the same colour range. […]

Regarding `c1cc2c(cc1-c1noc(CC3CCN(C4CCC4)CC3)n1)OCO2` [Example compound 2, 3-(benzo[d][1,3]dioxol-5-yl)-5-((1-cyclobutylpiperidin-4-yl)methyl)-1,2,4-oxadiazole], the “mean intensity of Black-gold II staining, forebrain corpus callosum” value (vehicle 14.65%) turned out to be 27.68±5.44%. For the same molecule, the “mean intensity of Black-gold II staining, forebrain cortex” value (vehicle 40.79%) was 60.05±6.28%.
